Source: patent publication US9695155B2, “Herbicidal substituted pyrimidinyloxy benzene compounds” (E. I. DU PONT DE NEMOURS AND COMPANY, priority 2013, dated 2017)

Tests used:
[1] = system: soybean; experiment: Test E postemergence; type: in vivo, Glycine max
How it was run: (§1)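 Compound in a non-phytotoxic solvent mixture with surfactant was applied preemergence to seeds in silt loam soil, or postemergence to plants 2 to 18 cm tall grown in peat-based potting medium. Plants were kept in a greenhouse for 14 to 21 days, then rated visually against untreated controls on a 0 (no effect) to 100 (complete control) scale.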

[2] = system: ducksalad; experiment: Test C flooded paddy test; type: in vivo, Heteranthera limosa; conditions: Flood, scale 0 to 100 (0 no effect, 100 complete control), 13 to 15 days
How it was run: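 Pots were flooded to 3 cm above the soil surface at treatment, compound applied directly to the paddy water, and that depth held throughout. Plants were kept in a greenhouse for 13 to 15 days, then visually rated against untreated controls.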

[3] = system: Brazilian crabgrass; experiment: Test E preemergence; type: in vivo, Digitaria horizontalis; conditions: for Crabgrass, Brazil plant response rating: scale 0 to 100 (0 no effect, 100 complete control); for Plant response rating, Crabgrass, Brazil: scale 0 to 100, 0 no effect, 100 complete control
How it was run: as §1

[4] = system: palmer pigweed; experiment: Test E preemergence; type: in vivo, Amaranthus palmeri; conditions: for Pigweed, Palmer plant response rating: scale 0 to 100 (0 no effect, 100 complete control); for Plant response rating, Pigweed, Palmer: scale 0 to 100, 0 no effect, 100 complete control
How it was run: as §1

[5] = system: johnsongrass; experiment: Test E preemergence; type: in vivo, Sorghum halepense; conditions: for Johnsongrass plant response rating: scale 0 to 100 (0 no effect, 100 complete control); for Plant response rating, Johnsongrass: scale 0 to 100, 0 no effect, 100 complete control
How it was run: as §1

[6] = system: dayflower; experiment: Test E postemergence; type: in vivo, Commelina virginica
How it was run: as §1

[7] = system: hairy beggarticks; experiment: Test E postemergence; type: in vivo, Bidens pilosa
How it was run: as §1

[8] = system: sandbur; experiment: Test E postemergence; type: in vivo, Cenchrus echinatus
How it was run: as §1

[9] = system: nightshade; experiment: Test E preemergence; type: in vivo, Solanum ptycanthum; conditions: for Nightshade plant response rating: scale 0 to 100 (0 no effect, 100 complete control); for Plant response rating, Nightshade: scale 0 to 100, 0 no effect, 100 complete control
How it was run: as §1

[10] = system: field bindweed; experiment: Test E postemergence; type: in vivo, Convolvulus arvensis
How it was run: as §1

[11] = system: yellow nutsedge; experiment: Test E preemergence; type: in vivo, Cyperus esculentus; conditions: for Nutsedge, Yellow plant response rating: scale 0 to 100 (0 no effect, 100 complete control); for Plant response rating, Nutsedge, Yellow: scale 0 to 100, 0 no effect, 100 complete control
How it was run: as §1

[12] = system: hairy beggarticks; experiment: Test E preemergence; type: in vivo, Bidens pilosa; conditions: for Beggarticks plant response rating: scale 0 to 100 (0 no effect, 100 complete control); for Plant response rating, Beggarticks: scale 0 to 100, 0 no effect, 100 complete control
How it was run: as §1

[13] = system: morningglory; experiment: Test E preemergence; type: in vivo, Ipomoea coccinea; conditions: for Morningglory plant response rating: scale 0 to 100 (0 no effect, 100 complete control); for Plant response rating, Morningglory: scale 0 to 100, 0 no effect, 100 complete control
How it was run: as §1

[14] = Postemergence, 31 g ai/ha, scale 0 to 100
[15] = Postemergence, 62 g ai/ha, scale 0 to 100
[16] = Postemergence, 125 g ai/ha, scale 0 to 100
[17] = Postemergence, 250 g ai/ha, scale 0 to 100
[18] = postemergence, 16 g ai/ha, scale 0 to 100, 0 no effect, 100 complete control

N#Cc1cnn(-c2c(C#N)cccc2Oc2ncc(Cl)cn2)c1 [Compound 200]
Plant response rating, Soybean [1, 14]: 95
Plant response rating, Soybean [1, 15]: 95
Plant response rating, Soybean [1, 16]: 95
Plant response rating, Soybean [1, 17]: 98
Plant response rating, Soybean [1, 18]: 95
Plant response rating, Ducksalad ([2]; 31 g ai/ha): 0
Plant response rating, Ducksalad ([2]; 62 g ai/ha): 0
Plant response rating, Ducksalad ([2]; 125 g ai/ha): 20
Plant response rating, Ducksalad ([2]; 250 g ai/ha): 80
Crabgrass, Brazil plant response rating ([3]; 16 g ai/ha): 30
Crabgrass, Brazil plant response rating ([3]; 31 g ai/ha): 85
Crabgrass, Brazil plant response rating ([3]; 62 g ai/ha): 100
Plant response rating, Crabgrass, Brazil ([3]; 125 g ai/ha): 100
Plant response rating, Crabgrass, Brazil ([3]; 250 g ai/ha): 100
Pigweed, Palmer plant response rating ([4]; 31 g ai/ha): 40
Pigweed, Palmer plant response rating ([4]; 62 g ai/ha): 100
Plant response rating, Pigweed, Palmer ([4]; 125 g ai/ha): 100
Plant response rating, Pigweed, Palmer ([4]; 250 g ai/ha): 100
Johnsongrass plant response rating ([5]; 31 g ai/ha): 15
Johnsongrass plant response rating ([5]; 62 g ai/ha): 25
Plant response rating, Johnsongrass ([5]; 125 g ai/ha): 30
Plant response rating, Johnsongrass ([5]; 250 g ai/ha): 75
Plant response rating, Dayflower, VA [6, 14]: 25
Plant response rating, Dayflower, VA [6, 15]: 40
Plant response rating, Dayflower, VA [6, 16]: 60
Plant response rating, Dayflower, VA [6, 17]: 70
Plant response rating, Dayflower, VA [6, 18]: 15
Plant response rating, Beggarticks [7, 14]: 60
Plant response rating, Beggarticks [7, 15]: 70
Plant response rating, Beggarticks [7, 16]: 90
Plant response rating, Beggarticks [7, 17]: 95
Plant response rating, Beggarticks [7, 18]: 50
Plant response rating, Sandbur [8, 14]: 0
Plant response rating, Sandbur [8, 15]: 0
Plant response rating, Sandbur [8, 16]: 0
Plant response rating, Sandbur [8, 17]: 10
Plant response rating, Sandbur [8, 18]: 0
Nightshade plant response rating ([9]; 31 g ai/ha): 10
Nightshade plant response rating ([9]; 62 g ai/ha): 85
Plant response rating, Nightshade ([9]; 125 g ai/ha): 100
Plant response rating, Nightshade ([9]; 250 g ai/ha): 100
Plant response rating, Field Bindweed [10, 14]: 70
Plant response rating, Field Bindweed [10, 15]: 90
Plant response rating, Field Bindweed [10, 16]: 95
Plant response rating, Field Bindweed [10, 17]: 95
Plant response rating, Field Bindweed [10, 18]: 70
Nutsedge, Yellow plant response rating ([11]; 31 g ai/ha): 0
Nutsedge, Yellow plant response rating ([11]; 62 g ai/ha): 0
Plant response rating, Nutsedge, Yellow ([11]; 125 g ai/ha): 40
Plant response rating, Nutsedge, Yellow ([11]; 250 g ai/ha): 70
Beggarticks plant response rating ([12]; 16 g ai/ha, preemergence): 0
Beggarticks plant response rating ([12]; 31 g ai/ha, preemergence): 10
Beggarticks plant response rating ([12]; 62 g ai/ha, preemergence): 35
Plant response rating, Beggarticks ([12]; preemergence, 125 g ai/ha): 75
Plant response rating, Beggarticks ([12]; preemergence, 250 g ai/ha): 95
Morningglory plant response rating ([13]; 31 g ai/ha): 20
Morningglory plant response rating ([13]; 62 g ai/ha): 50
Plant response rating, Morningglory ([13]; 125 g ai/ha): 90
Plant response rating, Morningglory ([13]; 250 g ai/ha): 98

N#Cc1cccc(Oc2ncc(Cl)cn2)c1-n1cc(Br)cn1 [Compound 52, 2-(4-bromo-1H-pyrazol-1-yl)-3-[(5-chloro-2-pyrimidinyl)oxy]benzonitrile]
plant response (crop injury) rating, soybean, 0-100 scale at 31 g/ha ([1]; Glycine max, post-emergence, Postemergence, 31 g ai/ha, scale 0 to 100): 75%
plant response (crop injury) rating, soybean, 0-100 scale at 62 g/ha ([1]; Glycine max, post-emergence, Postemergence, 62 g ai/ha, scale 0 to 100): 90%
plant response (crop injury) rating, soybean, 0-100 scale at 125 g/ha ([1]; Glycine max, post-emergence, Postemergence, 125 g ai/ha, scale 0 to 100): 95%
plant response (crop injury) rating, soybean, 0-100 scale at 16 g/ha ([1]; Glycine max, post-emergence, postemergence, 16 g ai/ha, scale 0 to 100, 0 no effect, 100 complete control): 70%
Crabgrass, Brazil plant response rating ([3]; 16 g ai/ha): 0
Crabgrass, Brazil plant response rating ([3]; 31 g ai/ha): 90
Crabgrass, Brazil plant response rating ([3]; 62 g ai/ha): 100
Plant response rating, Crabgrass, Brazil ([3]; 125 g ai/ha): 100
Plant response rating, Crabgrass, Brazil ([3]; 250 g ai/ha): 100
Pigweed, Palmer plant response rating ([4]; 16 g ai/ha): 25
Pigweed, Palmer plant response rating ([4]; 31 g ai/ha): 100
Pigweed, Palmer plant response rating ([4]; 62 g ai/ha): 100
Plant response rating, Pigweed, Palmer ([4]; 125 g ai/ha): 100
Plant response rating, Pigweed, Palmer ([4]; 250 g ai/ha): 100
Johnsongrass plant response rating ([5]; 16 g ai/ha): 0
Johnsongrass plant response rating ([5]; 31 g ai/ha): 0
Johnsongrass plant response rating ([5]; 62 g ai/ha): 30
Plant response rating, Johnsongrass ([5]; 125 g ai/ha): 70
Plant response rating, Johnsongrass ([5]; 250 g ai/ha): 98
pest or weed control at 31 g/ha ([6]; Commelina virginica, post-emergence, Postemergence, 31 g ai/ha, scale 0 to 100, read-out: Plant response rating, Dayflower, VA): 40%
pest or weed control at 62 g/ha ([6]; Commelina virginica, post-emergence, Postemergence, 62 g ai/ha, scale 0 to 100, read-out: Plant response rating, Dayflower, VA): 50%
pest or weed control at 125 g/ha ([6]; Commelina virginica, post-emergence, Postemergence, 125 g ai/ha, scale 0 to 100, read-out: Plant response rating, Dayflower, VA): 60%
pest or weed control at 16 g/ha ([6]; Commelina virginica, post-emergence, postemergence, 16 g ai/ha, scale 0 to 100, 0 no effect, 100 complete control, read-out: Plant response rating, Dayflower, VA): 30%
pest or weed control at 31 g/ha ([7]; Bidens pilosa, post-emergence, Postemergence, 31 g ai/ha, scale 0 to 100, read-out: Plant response rating, Beggarticks): 60%
pest or weed control at 62 g/ha ([7]; Bidens pilosa, post-emergence, Postemergence, 62 g ai/ha, scale 0 to 100, read-out: Plant response rating, Beggarticks): 70%
pest or weed control at 125 g/ha ([7]; Bidens pilosa, post-emergence, Postemergence, 125 g ai/ha, scale 0 to 100, read-out: Plant response rating, Beggarticks): 75%
pest or weed control at 16 g/ha ([7]; Bidens pilosa, post-emergence, postemergence, 16 g ai/ha, scale 0 to 100, 0 no effect, 100 complete control, read-out: Plant response rating, Beggarticks): 30%
pest or weed control at 31 g/ha ([8]; Cenchrus echinatus, post-emergence, Postemergence, 31 g ai/ha, scale 0 to 100, read-out: Plant response rating, Sandbur): 10%
pest or weed control at 62 g/ha ([8]; Cenchrus echinatus, post-emergence, Postemergence, 62 g ai/ha, scale 0 to 100, read-out: Plant response rating, Sandbur): 25%
pest or weed control at 125 g/ha ([8]; Cenchrus echinatus, post-emergence, Postemergence, 125 g ai/ha, scale 0 to 100, read-out: Plant response rating, Sandbur): 20%
pest or weed control at 16 g/ha ([8]; Cenchrus echinatus, post-emergence, postemergence, 16 g ai/ha, scale 0 to 100, 0 no effect, 100 complete control, read-out: Plant response rating, Sandbur): 15%
Nightshade plant response rating ([9]; 16 g ai/ha): 0
Nightshade plant response rating ([9]; 31 g ai/ha): 0
Nightshade plant response rating ([9]; 62 g ai/ha): 75
Plant response rating, Nightshade ([9]; 125 g ai/ha): 98
Plant response rating, Nightshade ([9]; 250 g ai/ha): 100
pest or weed control at 31 g/ha ([10]; Convolvulus arvensis, post-emergence, Postemergence, 31 g ai/ha, scale 0 to 100, read-out: Plant response rating, Field Bindweed): 50%
pest or weed control at 62 g/ha ([10]; Convolvulus arvensis, post-emergence, Postemergence, 62 g ai/ha, scale 0 to 100, read-out: Plant response rating, Field Bindweed): 65%
pest or weed control at 125 g/ha ([10]; Convolvulus arvensis, post-emergence, Postemergence, 125 g ai/ha, scale 0 to 100, read-out: Plant response rating, Field Bindweed): 65%
pest or weed control at 16 g/ha ([10]; Convolvulus arvensis, post-emergence, postemergence, 16 g ai/ha, scale 0 to 100, 0 no effect, 100 complete control, read-out: Plant response rating, Field Bindweed): 50%
Nutsedge, Yellow plant response rating ([11]; 16 g ai/ha): 0
Nutsedge, Yellow plant response rating ([11]; 31 g ai/ha): 0
Nutsedge, Yellow plant response rating ([11]; 62 g ai/ha): 0
Plant response rating, Nutsedge, Yellow ([11]; 125 g ai/ha): 25
Plant response rating, Nutsedge, Yellow ([11]; 250 g ai/ha): 50
Beggarticks plant response rating ([12]; 16 g ai/ha, preemergence): 0
Beggarticks plant response rating ([12]; 31 g ai/ha, preemergence): 0
Plant response rating, Beggarticks ([12]; Preemergence, 62 g ai/ha): 0
Plant response rating, Beggarticks ([12]; preemergence, 125 g ai/ha): 40
Plant response rating, Beggarticks ([12]; preemergence, 250 g ai/ha): 65
Morningglory plant response rating ([13]; 16 g ai/ha): 0
Morningglory plant response rating ([13]; 31 g ai/ha): 5
Morningglory plant response rating ([13]; 62 g ai/ha): 35
Plant response rating, Morningglory ([13]; 125 g ai/ha): 95
Plant response rating, Morningglory ([13]; 250 g ai/ha): 98
